From the supplement of paper PMC12533247

Columns and labels:
[1] = test system: HSV-1 K26-GFP infected primary human skin cells; assay: % change of HSV-1 GFP signal vs untreated infected cells; higher = less antiviral inhibition; conditions: cell type: primary dermal fibroblasts, time (h post infection): 48
Procedure: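 2D primary donor-derived dermal fibroblasts infected with GFP-HSV-1 K26 at MOI 1, treated 1 h later with compound dilutions and read at 48 hpi on IncuCyte. GFP integrated intensity is normalised to mock-infected and untreated infected wells (% change; -100 = full inhibition).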

[2] = test system: HSV-1 K26-GFP infected 3D skin equivalent; assay: % activity on HSV-1 GFP signal (0 = infected DMSO control, -100 = uninfected control); higher = higher signal (negative = inhibition / toxicity); conditions: time (h post infection): 48
Procedure: (§1)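 Triplicate dose-response (0.04 to 10 uM) of 11 top compounds in 3D bioprinted skin equivalents (submerged and ALI models) infected with GFP-HSV-1 K26 at MOI 0.1 and fixed at 48 hpi. GFP (virus) and tdTomato (fibroblast viability) signals are normalised to per-plate controls.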

[3] = test system: HSV-1 K26-GFP infected 3D skin equivalent; assay: % change of tdTomato fibroblast signal relative to infected DMSO control; higher = higher signal (negative = inhibition / toxicity); conditions: time (h post infection): 48
Procedure: as §1

[4] = test system: HSV-1 K26-GFP infected primary human skin cells; assay: % change of HSV-1 GFP signal vs untreated infected cells; higher = less antiviral inhibition
Procedure: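 2D primary donor-derived keratinocytes (read at 20 hpi) and donor-matched dermal fibroblasts (read at 48 hpi) infected with GFP-HSV-1 K26 at MOI 1 and treated 1 h later with compound dilutions. IncuCyte GFP integrated intensity is normalised by subtracting mock-infected wells and dividing by untreated infected wells, shown as % change (-100 = full inhibition).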

Nc1ccn([C@@H]2O[C@H](CO)[C@@H](O)C2(F)F)c(=O)n1 [Gemcitabine]
Conditions | % activity on HSV-1 GFP signal [%] | % change of HSV-1 GFP signal [%] | % change of tdTomato fibroblast signal [%]
[1], 0.001 µM, donor: 3 | – | 2.63 | –
[1], 0.003 µM, donor: 3 | – | 2.52 | –
[1], 0.003 µM, donor: 4 | – | -2.11 | –
[1], 0.0091 µM, donor: 3 | – | 1.9 | –
[1], 0.0091 µM, donor: 4 | – | -1.82 | –
[1], 0.0274 µM, donor: 3 | – | -32.1 | –
[1], 0.0274 µM, donor: 4 | – | -16.7 | –
[1], 0.0823 µM, donor: 3 | – | -96.7 | –
[1], 0.0823 µM, donor: 4 | – | -78 | –
[1], 0.2469 µM, donor: 3 | – | -99.824 | –
[1], 0.2469 µM, donor: 4 | – | -96.4 | –
[1], 0.7407 µM, donor: 3 | – | -99.797 | –
[1], 0.7407 µM, donor: 4 | – | -99.75 | –
[1], 2.2222 µM, donor: 3 | – | -99.74 | –
[1], 2.2222 µM, donor: 4 | – | -99.81 | –
[1], 6.6667 µM, donor: 3 | – | -99.76 | –
[1], 6.6667 µM, donor: 4 | – | -99.83 | –
[1], 20 µM, donor: 3 | – | -99.73 | –
[1], 20 µM, donor: 4 | – | -99.907 | –
[2], 0.041152 µM, model: ALI | -11.7 | – | –
[2], 0.041152 µM, model: submerged | -9.74 | – | –
[2], 0.123457 µM, model: ALI | -37.9 | – | –
[2], 0.123457 µM, model: submerged | -26.5 | – | –
[2], 0.37037 µM, model: ALI | -102 | – | –
[2], 0.37037 µM, model: submerged | -92.4 | – | –
[2], 1.111111 µM, model: ALI | -106 | – | –
[2], 1.111111 µM, model: submerged | -97 | – | –
[2], 3.33333 µM, model: ALI | -99.4 | – | –
[2], 3.33333 µM, model: submerged | -99 | – | –
[2], 10 µM, model: ALI | -102 | – | –
[2], 10 µM, model: submerged | -99.8 | – | –
[3], 0.041152 µM, model: ALI | – | – | -3.97
[3], 0.041152 µM, model: submerged | – | – | -1.22
[3], 0.123457 µM, model: ALI | – | – | -3.65
[3], 0.123457 µM, model: submerged | – | – | -6.59
[3], 0.37037 µM, model: ALI | – | – | -3.96
[3], 0.37037 µM, model: submerged | – | – | -13.9
[3], 1.111111 µM, model: ALI | – | – | -5.76
[3], 1.111111 µM, model: submerged | – | – | -17.6
[3], 3.33333 µM, model: ALI | – | – | -10.9
[3], 3.33333 µM, model: submerged | – | – | -22.7
[3], 10 µM, model: ALI | – | – | -5.25
[3], 10 µM, model: submerged | – | – | -28.4

% change of HSV-1 GFP signal [%], [4]
Conditions | 0.001 µM | 0.003 µM | 0.0091 µM | 0.0274 µM | 0.0823 µM | 0.2469 µM | 0.7407 µM | 2.2222 µM | 6.6667 µM | 20 µM
cell type: primary dermal fibroblasts, donor: 5, time (h post infection): 48 | -5.06 | -5.8 | -2.35 | -8.4 | -70.4 | -97.2 | -99.78 | -99.91 | -99.93 | -99.87
cell type: primary keratinocytes, donor: 3, time (h post infection): 20 | 29.8 | 37.4 | 36.1 | 17.1 | -25.6 | -75.6 | -97.4 | -98.37 | -99 | -99.06
cell type: primary keratinocytes, donor: 4, time (h post infection): 20 | 9.34 | 0.292 | 4.89 | -17.4 | -50.7 | -86.4 | -97.6 | -99.732 | -99.606 | -99.72
cell type: primary keratinocytes, donor: 5, time (h post infection): 20 | 6.72 | 7.7 | 7.12 | 9.71 | -23 | -73.3 | -94.7 | -99 | -99.39 | -99.6
